Source: patent publication EP4588908A1, “NEW PROSTACYCLIN FOR TREATING PULMONARY HYPERTENSION” (Shanghai Forefront Pharma Co., Ltd., priority 2023, dated 2025)

How the values were obtained:
[1] = tested on: male Sprague-Dawley rats; test: Hemodynamic measurement (RVSP by right cardiac catheterization) in MCT-modelled PAH rats; format: in vivo
Protocol: (§1) Twenty-eight 7-week-old male Sprague-Dawley rats (average weight of 200-250 g) were purchased from Vital River and were raised at the experimental site for 1 week of acclimatization (temperature 20°C-26°C, humidity 30%-70%, light-dark cycle ratio 1:1) until they were 8 weeks old.
(§2) Twenty-eight rats were randomized into the following 6 groups, including dosing groups, positive control groups, a negative control group and a healthy control group, and each was marked with ear tags.
(§3) • (1) Preparation of monocrotaline (MCT) solution: An adequate amount of MCT was weighed into a 50 mL solution of 20% ethanol-normal saline. After gentle shaking, the solution was transferred to a 50-mL centrifuge tube, and placed tilted in a thermostatic shaker at 37°C, 220 rpm for 12-14 hours to fully dissolve until no visible crystalline particles observed. • (2) Injection of MCT solution: The skin on the dorsal cervical region of the rats was gently lifted, MCT solution was subcutaneously injected at a dose of 60 mg/kg using a 1-mL syringe and the day was recorded as Day 0. • (3) Healthy control: The same volume of normal saline was injected in the same manner.
(§4) According to the concentration of 0.6 mg/mL and 1.2 mg/mL (3-mg/kg/day and 6-mg/kg/day dose groups), appropriate amounts of the test compound were weighed and dissolved in corresponding volume of pure water by shaking to obtain transparent solution, respectively; • (2) The resulting solutions were stored in a 4°C refrigerator. Remove and equilibrate to room temperature before use;
(§5) Starting from Day 14, the rats were weighed daily, and the corresponding solutions (test compound or normal saline) were administered intragastrically according to the grouping protocol until Day 27, for a total of 14 days; the intragastric dose was 0.5 mL/100 g, and the body weight and survival data of the rats were recorded.
On Day 28, the hemodynamic status of the rats was assessed using right cardiac catheterization: • (1) The PE-50 catheter, pressure transducer and pressure measuring workstation were prepared; the tubing was rinsed with heparinized saline to ensure that no bubbles remained in the tubing; the catheter was corrected to zero; • (2) The rats were anesthetized with 2% isoflurane at a flow rate of 2 L/min, and their limbs and incisors were fixed on the operating table with the cranial end to the operator; • (3) The fur on the surgical area of cervical region was shaved; • (4) The cervical skin was cut along the midline, pulled and fixed using hemostats, and the tissue was separated layer by layer using scissors to expose the right internal jugular vein; • (5) The internal jugular vein was bluntly dissected and isolated using hemostats; • (6) The distal end of the internal jugular vein was ligated using 4-0 sutures, and a suture was passed through the proximal end for later use; • (7) A V-shaped incision was made in the internal jugular vein using ophthalmic scissors, and a PE-50 catheter was inserted through the incision. After the catheter was placed, the pre-placed suture at the proximal end of the internal jugular vein was ligated to secure the catheter; • (8) The catheter reached the right atrium and right ventricle in turn; the right atrial pressure and right ventricular pressure were recorded; at least 5 stable waveforms were recorded at each site; 5 continuous waveforms were taken as segments, and more than 2 segments were intercepted to calculate the right ventricular systolic pressure (RVSP); • (9) The PE-50 catheter was removed and the examination was completed.

[2] = tested on: male Sprague-Dawley rats; test: Fulton index measurement RV/(LV+S) in MCT-modelled PAH rats; format: in vivo
Protocol: as §1, §2, §3, §4, §5
The tube was shaken upside down 6-8 times to mix; • (3) The lungs and heart were exposed by further opening the chest cavity; • (4) The left atrial appendage was cut open, a tube of heparinized saline was slowly injected using a 5-mL syringe into the right atrial appendage to flush the pulmonary vessels; • (5) The rat heart, lung, liver, spleen and kidney tissues were kept and frozen, and fixed with formaldehyde solution.
After separating the heart, the non-ventricular parts (such as the atria, blood vessels, and valve rings) were cut off. The intraventricular thrombus was removed as much as possible using forceps. The right ventricle (RV) and left ventricle (LV) + ventricular septum (LV+S) were separated by cutting along tense junction between the RV and interventricular septum (S) using straight scissors. The tissues were dried with gauze and weighed separately. RV/(LV+S) was calculated as the Fulton index. [drawing 107]

[3] = Dissolution in water when preparing the test compound solutions; format: physicochemical; settings: pure water; 0.6 mg/mL and 1.2 mg/mL gave transparent solution
Protocol: as §4

[4] = 3 mg/kg/day intragastric from Day 14, MCT 60 mg/kg rats, negative control 63±7.34, healthy control 22±2.41
[5] = 6 mg/kg/day intragastric from Day 14, MCT 60 mg/kg rats, negative control 63±7.34, healthy control 22±2.41
[6] = 3 mg/kg/day intragastric from Day 14, MCT 60 mg/kg rats, RV/(LV+S), negative control 0.61, healthy control 0.29
[7] = 6 mg/kg/day intragastric from Day 14, MCT 60 mg/kg rats, RV/(LV+S), negative control 0.61, healthy control 0.29
[8] = 60(30mpk bid) mg/kg/day, Group 7, same experimental method

SMILES	RVSP mmHg [1, 4] [mmHg]	RVSP mmHg ([1]; 3 mg/kg/day intragastric from Day 14, MCT 60 mg/kg rats, negative control 63±7.34, healthy control 22±2.41, listed as Compound 1M) [mmHg]	RVSP mmHg [1, 5] [mmHg]	RVSP mmHg ([1]; 6 mg/kg/day intragastric from Day 14, MCT 60 mg/kg rats, negative control 63±7.34, healthy control 22±2.41, listed as Compound 1H)	Fulton index [2, 6]	Fulton index ([2]; 3 mg/kg/day intragastric from Day 14, MCT 60 mg/kg rats, RV/(LV+S), negative control 0.61, healthy control 0.29, listed as Compound 1M)	Fulton index [2, 7]	Fulton index ([2]; 6 mg/kg/day intragastric from Day 14, MCT 60 mg/kg rats, RV/(LV+S), negative control 0.61, healthy control 0.29, listed as Compound 1H)	Solubility in water [3]	RVSP mmHg ([1]; 3 mg/kg/day intragastric from Day 14, MCT 60 mg/kg rats, negative control 63±7.34, healthy control 22±2.41, listed as Compound C1M)	RVSP mmHg ([1]; 6 mg/kg/day intragastric from Day 14, MCT 60 mg/kg rats, negative control 63±7.34, healthy control 22±2.41, listed as Compound C1H)	Fulton index ([2]; 3 mg/kg/day intragastric from Day 14, MCT 60 mg/kg rats, RV/(LV+S), negative control 0.61, healthy control 0.29, listed as Compound C1M)	Fulton index ([2]; 6 mg/kg/day intragastric from Day 14, MCT 60 mg/kg rats, RV/(LV+S), negative control 0.61, healthy control 0.29, listed as Compound C1H)	RVSP mmHg [1, 8] [mmHg]	Fulton index [2, 8]
CCCCC[C@H](O)CC[C@H]1[C@H](O)[C@@H](CC)[C@@H]2Cc3c(cccc3OCC(=O)O)C[C@@H]21 [Compound 1]	41 ± 16.27	41±16.27	22 ± 4.36	22+4.36 mmHg	0.37 ± 0.12	0.37+0.12	0.25 ± 0.27	0.25±0.27	can be directly dissolved in water						
CCCCC[C@H](O)CC[C@@H]1[C@H]2Cc3cccc(OCC(=O)O)c3C[C@H]2C[C@H]1O [Compound C1, Treprostinil sodium 5.5-hydrate]	46 ± 13.45		38 ± 8.86		0.38 ± 0.10		0.37 ± 0.07		can be directly dissolved in water	46+13.45 mmHg	38+8.86 mmHg	0.38+0.10	0.37+0.07		
O=C(O)COC[C@H]1CC[C@H](COC(=O)N(c2ccccc2)c2ccc(Cl)cc2)CC1 [Ralinepag]														22	0.35
